Results as given in ChEMBL document CHEMBL4433254 (Bioorg Med Chem Lett, 2019).
≈ marks a conversion by molar mass, not a printed value.

Columns and labels:
[1] = target: T1, Cytochrome P450 11B1, mitochondrial (Homo sapiens, UniProt P15538); experiment: Inhibition of human CYP11B1 expressed in hamster fibroblasts using deoxycorticosterone as substrate
T1 sequence (P15538 whole entry): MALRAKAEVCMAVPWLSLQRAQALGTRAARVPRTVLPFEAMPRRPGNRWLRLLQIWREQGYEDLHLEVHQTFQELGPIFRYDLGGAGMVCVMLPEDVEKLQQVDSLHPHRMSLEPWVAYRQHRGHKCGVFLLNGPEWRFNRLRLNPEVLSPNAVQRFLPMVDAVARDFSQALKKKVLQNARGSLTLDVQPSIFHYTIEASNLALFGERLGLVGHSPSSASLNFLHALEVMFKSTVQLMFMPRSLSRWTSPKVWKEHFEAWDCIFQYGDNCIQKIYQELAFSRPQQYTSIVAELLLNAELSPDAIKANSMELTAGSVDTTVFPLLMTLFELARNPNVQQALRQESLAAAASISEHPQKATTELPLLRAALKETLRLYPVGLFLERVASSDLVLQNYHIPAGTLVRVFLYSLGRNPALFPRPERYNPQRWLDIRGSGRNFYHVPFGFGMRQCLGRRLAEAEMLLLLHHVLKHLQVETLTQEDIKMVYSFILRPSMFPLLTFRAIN

Homo sapiens [2] = species on record: Homo sapiens; experiment: Selectivity index, ratio of IC50 for human CYP11B1 expressed in hamster fibroblasts to ratio of IC50 human CYP11B2 expressed in hamster fibroblasts
[3] = target: T2, Cytochrome P450 11B2, mitochondrial (Homo sapiens, UniProt P19099); experiment: Inhibition of human CYP11B2 expressed in hamster fibroblasts using deoxycorticosterone as substrate
T2 sequence (P19099 whole entry): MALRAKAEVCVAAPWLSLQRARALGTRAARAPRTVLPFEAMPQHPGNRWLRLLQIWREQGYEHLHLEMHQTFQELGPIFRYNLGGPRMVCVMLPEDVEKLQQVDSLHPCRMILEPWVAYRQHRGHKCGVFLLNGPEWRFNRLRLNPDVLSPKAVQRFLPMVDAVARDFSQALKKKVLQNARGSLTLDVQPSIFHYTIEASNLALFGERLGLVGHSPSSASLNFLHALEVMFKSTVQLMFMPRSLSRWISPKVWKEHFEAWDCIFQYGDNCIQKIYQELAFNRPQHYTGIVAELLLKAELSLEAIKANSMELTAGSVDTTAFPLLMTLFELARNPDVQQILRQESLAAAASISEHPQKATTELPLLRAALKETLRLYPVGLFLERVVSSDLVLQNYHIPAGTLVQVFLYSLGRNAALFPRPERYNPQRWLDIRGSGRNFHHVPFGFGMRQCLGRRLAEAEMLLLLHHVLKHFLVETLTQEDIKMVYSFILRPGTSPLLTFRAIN

CYP11B1 = target: T3, CYP11B1 (Homo sapiens, UniProt P15538); experiment: Inhibition of CYP11B1 (unknown origin)
T3 sequence (P15538 whole entry): T1 sequence (P15538 whole entry)

Homo sapiens [4] = species on record: Homo sapiens; experiment: Selectivity index, ratio of IC50 for CYP11B1 (unknown origin) to ratio of IC50 for CYP11B2 (unknown origin)
Candida albicans = experiment: Antifungal activity against Candida albicans; type: functional
[5] = Lipophilicity, log D of compound at pH 7.4; conditions: buffer
[6] = Partition coefficient, log P of the compound; conditions: octanol/water

Row | Structure (SMILES) | IC50 (CYP11B1) [µM] | Ratio IC50 (Homo sapiens [4]) | MIC90 (Candida albicans) [µg/mL] | further results
1 | CCC(=O)N1CCc2cc(-c3cccnc3)ccc21 |  |  |  | IC50 [1]: 4.74 µM; Ratio IC50 (Homo sapiens [2]): 21; IC50 [3]: 0.228 µM
2 | Fc1cc(-c2cccnc2)cc2c1-n1cnnc1CC2 | 16.1 | 94 |  | 
3 | Cc1nnc2n1-c1c(F)cc(-c3cccnc3)cc1CC2 | 17 | 272 |  | 
4 | CC(=O)N1CCN(c2ccc(OCC3COC(Cn4ccnc4)(c4ccc(Cl)cc4Cl)O3)cc2)CC1 (stereo not given) [KETOCONAZOLE] |  |  | 0.25 (≈ 0.47 µM) | 
5 | Fc1cc2c(cc1-c1cccnc1)CCc1nncn1-2 | 7.9 | 32 |  | 
6 | Clc1ccccc1C(c1ccccc1)(c1ccccc1)n1ccnc1 [CLOTRIMAZOLE] |  |  | 1 (≈ 2.9 µM) | logD [5]: 5.05; logP [6]: 5.05
7 | Cc1nnc2n1-c1cc(F)c(-c3cccnc3)cc1CC2 | 12.6 | 96 |  | 
8 | OC(Cn1cncn1)(Cn1cncn1)c1ccc(F)cc1F [FLUCONAZOLE] |  |  | 1 (≈ 3.27 µM) | 
9 | Clc1ccc(COC(Cn2ccnc2)c2ccc(Cl)cc2Cl)c(Cl)c1 (stereo not given) [MICONAZOLE] |  |  | 0.5 (≈ 1.2 µM) | 
10 | Clc1ccc(COC(Cn2ccnc2)c2ccc(Cl)cc2Cl)cc1 (stereo not given) [ECONAZOLE] |  |  | 2 (≈ 5.24 µM) | logD [5]: 5.25; logP [6]: 5.25
